Measured values from ChEMBL document CHEMBL2176963, “Design, synthesis, and biological evaluation of 3-(1H-1,2,3-triazol-1-yl)benzamide derivatives as Potent Pan Bcr-Abl inhibitors including the threonine(315)→isoleucine(315) mutant” (J Med Chem, 2012).

Assays:
K562 [1] = assay: Antiproliferative activity against human K562 cells expressing wild type Bcr-Abl after 72 hrs by CCK-8 assay; conditions: K562, 72 h
[2] = Antiproliferative activity against mouse BA/F3 cells expressing wild type Bcr-Abl after 72 hrs by CCK-8 assay; conditions: BaF3, 72 h
K562 [3] = assay: Antiproliferative activity against imatinib-resistant human K562 cells expressing Bcr-Abl Q252H mutant after 72 hrs by CCK-8 assay; conditions: K562, 72 h
cells = conditions: Mus musculus, BaF3, 72 h
[4] = Antiproliferative activity against human KU812 cells expressing wild type Bcr-Abl after 72 hrs by CCK-8 assay; conditions: KU812, 72 h

| SMILES | IC50 (K562 [1]) [nM] | IC50 (K562 [3]) [nM] | IC50 (cells) [nM] | IC50 [2] [nM] | IC50 [4] [nM] |
| --- | --- | --- | --- | --- | --- |
| Cc1ccc(C(=O)Nc2ccc(CN3CCN(C)CC3)c(C(F)(F)F)c2)cc1-n1cc(-c2ccc3[nH]ncc3c2)nn1 | 12.4 | 109 | 754 | 56.2 | 12.2 |
| Cc1ccc(C(=O)Nc2ccc(CN3CCN(C)CC3)c(C(F)(F)F)c2)cc1-n1cc(-c2cnc(N3CCCCC3)nc2)nn1 | 798 | 893 | 3590 | 1240 | 158 |
| Cc1ccc(C(=O)Nc2ccc(CN3CCN(C)CC3)c(C(F)(F)F)c2)cc1-n1cc(-c2cnc3[nH]ccc3c2)nn1 | 0.42 | 3.89 | 66.9 | 3.16 | 0.14 |
| CN1CCN(Cc2ccc(NC(=O)c3ccc(F)c(-n4cc(-c5cnc6[nH]ncc6c5)nn4)c3)cc2C(F)(F)F)CC1 | 0.24 | 2.28 | 130 | 3.9 | 0.1 |
| Cc1ccc(Nc2ncc3c(n2)N(C)C(=O)N(c2cc(NC(=O)c4cccc(C(F)(F)F)c4)ccc2C)C3)cn1 | 0.44 | 2.6 | 6.18 | 3.15 | 0.08 |
| Cc1ccc(C(=O)Nc2ccc(CN3CCN(C)CC3)c(C(F)(F)F)c2)cc1-n1cc(-c2cnc(NC3CCCCC3)nc2)nn1 | 7.04 | 72.8 | 3630 | 28.3 | 1.57 |
| Cc1ccc(C(=O)Nc2ccc(CN3CCN(C)CC3)c(C(F)(F)F)c2)cc1-n1cc(-c2cnc(NC(C)C)nc2)nn1 | 7.26 | 81.2 | 799 | 32.8 | 1.44 |
| CCNc1ncc(-c2cn(-c3cc(C(=O)Nc4ccc(CN5CCN(C)CC5)c(C(F)(F)F)c4)ccc3C)nn2)cn1 | 1.26 | 20.2 | 405 | 3.04 | 0.2 |
| Cc1ccc(C(=O)Nc2ccc(CN3CCN(C)CC3)c(C(F)(F)F)c2)cc1-n1cc(-c2cnc(NC3CC3)nc2)nn1 | 1.24 | 19.2 | 579 | 3.01 | 0.22 |
| Cc1ccc(C(=O)Nc2ccc(CN3CCN(C)CC3)c(C(F)(F)F)c2)cc1-n1cc(-c2cnc(N)nc2)nn1 | 0.85 | 17.1 | 494 | 3.35 | 0.2 |
| Cc1cn(-c2cc(NC(=O)c3ccc(C)c(-n4cc(-c5cnc6[nH]ncc6c5)nn4)c3)cc(C(F)(F)F)c2)cn1 | 3.37 | 25.7 | 656 | 4.72 | 0.73 |
| Cc1ncn(-c2cc(NC(=O)c3ccc(C)c(-n4cc(-c5cnc6[nH]ncc6c5)nn4)c3)cc(C(F)(F)F)c2)n1 | 2.9 | 34.2 | 620 | 3.68 | 0.4 |
| Cc1ccc(C(=O)Nc2ccc(CN3CCCCC3)c(C(F)(F)F)c2)cc1-n1cc(-c2cnc3[nH]ncc3c2)nn1 | 3.22 | 31.1 | 3510 | 5.39 | 0.47 |
| Cc1ccc(C(=O)Nc2ccc(CN3CCC(N(C)C)CC3)c(C(F)(F)F)c2)cc1-n1cc(-c2cnc3[nH]ncc3c2)nn1 | 0.67 | 6.56 | 527 | 2.76 | 0.43 |
| Cc1ccc(C(=O)Nc2ccc(CN3CCN(C)CC3)c(C(F)(F)F)c2)cc1-n1cc(-c2cnc3[nH]nc(C)c3c2)nn1 | 0.39 | 4.74 | 79.6 | 2.03 | 0.15 |
| Cc1ccc(C(=O)Nc2ccc(CN3CCOCC3)c(C(F)(F)F)c2)cc1-n1cc(-c2cnc3[nH]ncc3c2)nn1 | 3.41 | 41.1 | 1560 | 4.46 | 0.46 |
| Cc1ccc(C(=O)Nc2ccc(CN3CCC(N4CCN(C)CC4)CC3)c(C(F)(F)F)c2)cc1-n1cc(-c2cnc3[nH]ncc3c2)nn1 | 1.25 | 4.32 | 873 | 23.8 | 1.48 |
| Cc1ccc(C(=O)Nc2ccc(CN3CCN(C)CC3)c(C(F)(F)F)c2)cc1-n1cc(-c2ccc3[nH]ccc3c2)nn1 | 70.4 | 800 | 999 | 435 | 19.6 |
| CN1CCN(Cc2ccc(NC(=O)c3ccc(Br)c(-n4cc(-c5cnc6[nH]ncc6c5)nn4)c3)cc2C(F)(F)F)CC1 | 0.23 | 1.49 | 46.4 | 3.28 | 0.1 |
| Cc1ccc(C(=O)Nc2ccc(CN3CCN(C)CC3)c(C(F)(F)F)c2)cc1-n1cc(-c2cnc3cccnn23)nn1 | 35.8 | 1.41 | > 10000 | 27.4 | 14.6 |
| Cc1ccc(C(=O)Nc2ccc(CN3CCN(C)CC3)c(C(F)(F)F)c2)cc1-n1cc(-c2cnn3cccnc23)nn1 | 2.45 | 17.1 | 1440 | 7.31 | 1.51 |
| CN1CCN(Cc2ccc(NC(=O)c3cccc(-n4cc(-c5cnc6[nH]ncc6c5)nn4)c3)cc2C(F)(F)F)CC1 | 0.67 | 10.8 | 728 | 3.98 | 1.34 |
| CCc1ccc(C(=O)Nc2ccc(CN3CCN(C)CC3)c(C(F)(F)F)c2)cc1-n1cc(-c2cnc3[nH]ncc3c2)nn1 | 0.85 | 8.96 | 282 | 4.04 | 0.39 |
| CN1CCN(Cc2ccc(NC(=O)c3ccc(C4CC4)c(-n4cc(-c5cnc6[nH]ncc6c5)nn4)c3)cc2C(F)(F)F)CC1 | 5.69 | 37.5 | 1160 | 32.9 | 4.05 |

Second part, led by results:

| IC50 (K562 [1]) [nM] | IC50 (K562 [3]) [nM] | IC50 (cells) [nM] | SMILES | IC50 [2] [nM] | IC50 [4] [nM] |
| --- | --- | --- | --- | --- | --- |
| 0.63 | 1.85 | 178 | Cc1ccc(C(=O)Nc2ccc(CN3CCN(C)CC3)c(C(F)(F)F)c2)cc1-n1cc(-c2cnc3ccccn23)nn1 | 4.54 | 0.16 |
| 0.8 | 8.45 | 294 | Cc1ccc(C(=O)Nc2ccc(CN3CCCN(C)CC3)c(C(F)(F)F)c2)cc1-n1cc(-c2cnc3[nH]ncc3c2)nn1 | 4.02 | 0.38 |
| 0.32 | 2.24 | 91.7 | Cc1ccc(C(=O)Nc2ccc(CN3CC[C@H](N(C)C)C3)c(C(F)(F)F)c2)cc1-n1cc(-c2cnc3[nH]ncc3c2)nn1 | 3.01 | 0.68 |
| 40.9 | 76.8 | 533 | Cc1ccc(C(=O)Nc2ccc(CN3CCN(C)CC3)c(C(F)(F)F)c2)cc1-n1cc(-c2cnc3ncnn3c2)nn1 | 316 | 11.2 |
| 3.5 | 21.9 | 652 | Cc1ccc(C(=O)Nc2cc(-n3cncn3)cc(C(F)(F)F)c2)cc1-n1cc(-c2cnc3[nH]ncc3c2)nn1 | 4.54 | 0.46 |
| 0.31 | 3.15 | 544 | Cc1ccc(C(=O)Nc2ccc(CN3CC[C@@H](N(C)C)C3)c(C(F)(F)F)c2)cc1-n1cc(-c2cnc3[nH]ncc3c2)nn1 | 3.43 | 0.24 |
| 3.87 | 16.2 | 8840 | Cc1ccc(C(=O)Nc2ccc(CN3CCN(C)CC3)c(C(F)(F)F)c2)cc1-n1cc(-c2cnc3ncccn23)nn1 | 47.9 | 11.1 |
| 0.67 | 11 | 299 | CNc1ncc(-c2cn(-c3cc(C(=O)Nc4ccc(CN5CCN(C)CC5)c(C(F)(F)F)c4)ccc3C)nn2)cn1 | 2.74 | 0.16 |
| 0.66 | 12.1 | 939 | Cc1ccc(C(=O)Nc2ccc(CN3CCCC3)c(C(F)(F)F)c2)cc1-n1cc(-c2cnc3[nH]ncc3c2)nn1 | 2.47 | 0.19 |
| 0.25 | 3.55 | 473 | Cc1ccc(C(=O)Nc2ccc(CN3C[C@H]4CN(C)C[C@H]4C3)c(C(F)(F)F)c2)cc1-n1cc(-c2cnc3[nH]ncc3c2)nn1 | 3.66 | 0.4 |
| 8.82 | 181 | 3500 | Cc1ccc(C(=O)Nc2ccc(CN3CCN(C)CC3)c(C(F)(F)F)c2)cc1-n1cc(-c2cnc(NCc3ccccc3)nc2)nn1 | 28.2 | 1.89 |
| 74 | 219 | 2060 | CC(C)c1ccc(C(=O)Nc2ccc(CN3CCN(C)CC3)c(C(F)(F)F)c2)cc1-n1cc(-c2cnc3[nH]ncc3c2)nn1 | 420 | 14.2 |
